Reference: patent publication US8486984B2, “Aminomethyl substituted bicyclic aromatic compounds suitable for treating disorders that respond to modulation of the dopamine D3 receptor” (Abbott GmbH & Co., KG, priority 2004, dated 2013)
Counter-ions that a name gives are not always drawn.

What was measured:
[1] = target: T1, human dopamine D3 receptors (Homo sapiens, UniProt P35462); assay: Dopamine D3 receptor binding, [125I]-iodosulpride displacement; conditions: for Ki: membranes from HEK-293 cells stably expressing receptor, 0.1 nM [125I]-iodosulpride, 25° C., 60 minutes; for Ki(D2)*/Ki(D3)*: selectivity, ratio of receptor binding constants D2/D3
T1 construct: expressed in transfected cells; membranes)
T1 sequence (P35462 whole entry): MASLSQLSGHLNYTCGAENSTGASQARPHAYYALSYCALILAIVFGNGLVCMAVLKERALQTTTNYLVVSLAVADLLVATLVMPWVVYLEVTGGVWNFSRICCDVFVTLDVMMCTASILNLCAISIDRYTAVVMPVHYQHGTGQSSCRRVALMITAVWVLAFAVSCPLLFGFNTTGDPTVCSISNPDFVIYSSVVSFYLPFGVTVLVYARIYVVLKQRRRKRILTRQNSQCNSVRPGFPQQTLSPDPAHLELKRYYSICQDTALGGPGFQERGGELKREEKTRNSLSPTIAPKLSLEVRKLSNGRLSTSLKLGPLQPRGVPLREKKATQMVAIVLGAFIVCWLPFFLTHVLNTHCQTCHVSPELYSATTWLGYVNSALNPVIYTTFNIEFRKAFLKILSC
Procedure: (§1) The substance to be tested was either dissolved in methanol/Chremophor® (BASF-AG) or in dimethyl sulfoxide and then diluted with water to the desired concentration.
(§2) Each assay mixture was run in triplicate.
The incubation buffer contained 50 mM tris, 120 mM NaCl, 5 mM KCl, 2 mM CaCl2, 2 mM MgCl2 and 0.1% bovine serum albumin, 10 μM quinolone and 0.1% ascorbic acid (prepared fresh daily). The buffer was adjusted to pH 7.4 with HCl.
(§3) After having been incubated at 25° C. for 60 minutes, the assay mixtures were filtered through a Whatman GF/B glass fiber filter under vacuum using a cell collecting device. The filters were transferred to scintillation viols using a filter transfer system. After 4 ml of Ultima Gold® (Packard) have been added, the samples were shaken for one hour and the radioactivity was then counted in a Beta-Counter (Packard, Tricarb 2000 or 2200CA). The cpm values were converted into dpm using a standard quench series and the program belonging to the instrument.
(§4) The inhibition curves were analyzed by means of iterative nonlinear regression analysis using the Statistical Analysis System (SAS) which is similar to the “LIGAND” program described by Munson and Rodbard.

[2] = target: T2, human dopamine D2L receptors (long isoform) (Homo sapiens, UniProt P14416); assay: Dopamine D2L receptor binding, [125I] iodospiperone displacement; conditions: membranes from HEK-293 cells stably expressing receptor; 0.01 nM [125I] iodospiperone; 25° C., 60 minutes; read-out: Ki(D2)*
T2 construct: expressed in transfected cells; membranes)
T2 sequence (P14416 whole entry, canonical isoform): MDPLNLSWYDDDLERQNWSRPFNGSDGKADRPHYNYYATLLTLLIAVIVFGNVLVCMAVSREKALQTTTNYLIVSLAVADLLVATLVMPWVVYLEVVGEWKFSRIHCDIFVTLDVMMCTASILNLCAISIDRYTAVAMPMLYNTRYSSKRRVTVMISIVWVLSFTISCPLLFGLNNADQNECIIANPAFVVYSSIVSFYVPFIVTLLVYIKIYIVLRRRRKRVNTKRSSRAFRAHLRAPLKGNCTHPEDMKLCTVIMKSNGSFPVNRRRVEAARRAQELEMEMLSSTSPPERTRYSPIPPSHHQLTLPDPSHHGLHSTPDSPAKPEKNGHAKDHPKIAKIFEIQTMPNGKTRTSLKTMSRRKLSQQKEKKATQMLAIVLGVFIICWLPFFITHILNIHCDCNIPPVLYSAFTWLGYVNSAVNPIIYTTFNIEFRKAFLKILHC
Procedure: as §1, §2
The incubation buffer contained 50 mM tris, 120 mM NaCl, 5 mM KCl, 2 mM CaCl2, 2 mM MgCl2 and 0.1% bovine serum albumin. The buffer was adjusted to pH 7.4 with HCl.
as §3, §4

Ki [1] | Ki(D2)*/Ki(D3)* [1] | Ki [2] | SMILES
5.8 nM | 39 | 225 nM | CCCNCc1cc2cc(NS(=O)(=O)c3ccc(C(C)C)cc3)ccc2[nH]1 [Example 1, 4-Isopropyl-N-(2-propylaminomethyl-1H-indol-5-yl)-benzenesulfonamide]
9.4 nM | 55 | 517 nM | CCCNCC1Cc2cc(NS(=O)(=O)c3ccc(C(C)C)cc3)ccc2N1 (stereo not shown) [Example 2, 4-Isopropyl-N-(2-propylaminomethyl-2,3-dihydro-1H-indol-5-yl)-benzenesulfonamide×HCl]
63.4 nM | 120 | 7640 nM | CCCNCC1Cc2cc(NS(=O)(=O)c3ccc(OC(F)(F)F)cc3)ccc2N1 (stereo not shown) [Example 4, N-(2-Propylaminomethyl-2,3-dihydro-1H-indol-5-yl)-4-trifluoromethoxy-benzenesulfonamide×HCl]
55 nM | 23 | 55 nM | CCCNCc1cc2cc(NS(=O)(=O)c3ccc(OC(F)(F)F)cc3)ccc2[nH]1 [Example 3, N-(2-Propylaminomethyl-1H-indol-5-yl)-4-trifluoromethoxy-benzenesulfonamide×½ fumaric acid]
3.6 nM | 66 | – | CCCN1CC2CCc3cc(NS(=O)(=O)c4ccc(OC(F)(F)F)cc4)ccc3C2C1.Cl (stereo not shown) [Example 16, N-(2-Propyl-2,3,3a,4,5,9b-hexahydro-1H-benzo[e]isoindol-7-yl)-4-trifluoromethoxy-benzenesulfonamide hydrochloride]
7.4 nM | 54 | 398 nM | CCCNCC1Cc2ccc(NS(=O)(=O)c3ccc(C(C)C)cc3)cc2C1 (stereo not shown) [Example 7, 4-Isopropyl-N-(2-propylaminomethyl-indan-5-yl)-benzenesulfonamide]

The next lines start with the compound.

SMILES | Ki [1] | Ki(D2)*/Ki(D3)* [1] | Ki [2]
CCCN1CCC2c3ccc(NS(=O)(=O)c4ccc(C(C)C)cc4)cc3NC2C1 (stereo not drawn) [Example 12, 4-Isopropyl-N-(2-propyl-2,3,4,4a,9,9a-hexahydro-1H-beta-carbolin-7-yl)-benzenesulfonamide] | 5.3 nM | 26 | 137 nM
CCCN1CC2CCc3cc(NS(=O)(=O)c4ccc(OC(F)F)cc4)ccc3C2C1.Cl (stereo not shown) [Example 17, 4-Difluoromethoxy-N-(2-propyl-2,3,3a,4,5,9b-hexahydro-1H-benzo[e]isoindol-7-yl)-benzenesulfonamide, hydrochloride] | 3.3 nM | 19 | –
CCCNCC1CCc2cc(NS(=O)(=O)c3ccc(C(C)C)cc3)ccc21 (stereo not shown) [Example 10, 4-Isopropyl-N-(1-propylaminomethyl-indan-5-yl)-benzenesulfonamide] | 1.32 nM | 45 | 58.6 nM
CCCN1CC2CCc3c(cc(Cl)c(NS(=O)(=O)c4ccc(C(C)C)cc4)c3Cl)C2C1.Cl (stereo not shown) [Example 13, N-(6,8-Dichloro-2-propyl-2,3,3a,4,5,9b-hexahydro-1H-benzo[e]isoindol-7-yl)-4-isopropyl-benzenesulfonamide, hydrochloride] | 10.1 nM | 5 | –
CCCNCC1CCCc2cc(NS(=O)(=O)c3ccc(C(C)C)cc3)ccc21 (stereo not shown) [Example 5, 4-Isopropyl-N-(5-propylaminomethyl-5,6,7,8-tetrahydro-naphthalen-2-yl)-benzenesulfonamide×HCl] | 1.72 nM | 69 | 119 nM
CCCN1CC2CCc3cc(NS(=O)(=O)c4ccc(C(C)C)cc4)ccc3C2C1.Cl (stereo not shown) [Example 14, 4-Isopropyl-N-(2-propyl-2,3,3a,4,5,9b-hexahydro-1H-benzo[e]isoindol-7-yl)-benzenesulfonamide, hydrochloride] | 0.5 nM | 28 | –
CCCN1CC2CCc3cc(NS(=O)(=O)c4ccc(C(C)C(F)(F)F)cc4)ccc3C2C1.Cl (stereo not shown) [Example 15, N-(2-Propyl-2,3,3a,4,5,9b-hexahydro-1H-benzo[e]isoindol-7-yl)-4-(2,2,2-trifluoro-1-methylethyl)-benzenesulfonamide, hydrochloride] | 1.8 nM | 36 | –
C=CCNCC1Cc2cccc(NS(=O)(=O)c3ccc(C(C)C)cc3)c2C1 (stereo not shown) [Example 9, 4-Isopropyl-N-(2-allylaminomethyl-indan-4-yl)-benzenesulfonamide] | 4.3 nM | 54 | 232 nM
